Measurements published in paper PMC11655885, “Structural mechanism of CB1R binding to peripheral and biased inverse agonists” (Nature Communications, 2024).
Several values for one entry are separate records, joined by “and”; a condition that tells them apart may be missing. Equal entries are not always repeated.

Molecular target: T1, hCNR1 (Homo sapiens, UniProt P21554)
T1 construct: host or cells: CHO-K1 (PathHunter eXpress CNR1 β-arrestin-2, purchased recombinant cell line)
Assay: Inhibition of CP55,940-induced β-arrestin-2 recruitment, PathHunter eXpress CNR1 CHO-K1 assay
Format: cell-based
Conditions: for β-arrestin-2 recruitment, lum values / β-arrestin-2 recruitment, % basal response: averages of single experiments; for bias: difference in IC50, G protein ([35S]GTPγS) versus β-arrestin2: human CB1R-containing cell membranes
Protocol: The inhibitory potencies of the antagonists in β-arrestin-2 signaling was measured using the DiscoverX β-arrestin-2 recruitment assay for hCNR1 (Eurofins, catalog # 93-0959E2CP). The assay was performed following supplier’s instructions. […] Concentration-response relationships were analyzed by fitting the data to the three-parameter model ‘log(agonist) vs response’ in GraphPad Prism 10.

[1] = 25 nM CP55,940 + 0.001 nM antagonist
[2] = 25 nM CP55,940 + 0.01 nM antagonist
[3] = 25 nM CP55,940 + 0.1 nM antagonist
[4] = 25 nM CP55,940 + 0.3 nM antagonist
[5] = 25 nM CP55,940 + 1 nM antagonist
[6] = 25 nM CP55,940 + 3 nM antagonist
[7] = 25 nM CP55,940 + 10 nM antagonist
[8] = 25 nM CP55,940 + 30 nM antagonist
[9] = 25 nM CP55,940 + 100 nM antagonist
[10] = 25 nM CP55,940 + 300 nM antagonist
[11] = 25 nM CP55,940 + 1000 nM antagonist
[12] = 25 nM CP55,940 + 0.001 nM antagonist, listed as S-MRI-1867
[13] = 25 nM CP55,940 + 0.01 nM antagonist, listed as S-MRI-1867
[14] = 25 nM CP55,940 + 0.1 nM antagonist, listed as S-MRI-1867
[15] = 25 nM CP55,940 + 0.3 nM antagonist, listed as S-MRI-1867
[16] = 25 nM CP55,940 + 1 nM antagonist, listed as S-MRI-1867
[17] = 25 nM CP55,940 + 3 nM antagonist, listed as S-MRI-1867
[18] = 25 nM CP55,940 + 10 nM antagonist, listed as S-MRI-1867
[19] = 25 nM CP55,940 + 30 nM antagonist, listed as S-MRI-1867
[20] = 25 nM CP55,940 + 100 nM antagonist, listed as S-MRI-1867
[21] = 25 nM CP55,940 + 300 nM antagonist, listed as S-MRI-1867
[22] = 25 nM CP55,940 + 1000 nM antagonist, listed as S-MRI-1867

T1 sequence (P21554 whole entry): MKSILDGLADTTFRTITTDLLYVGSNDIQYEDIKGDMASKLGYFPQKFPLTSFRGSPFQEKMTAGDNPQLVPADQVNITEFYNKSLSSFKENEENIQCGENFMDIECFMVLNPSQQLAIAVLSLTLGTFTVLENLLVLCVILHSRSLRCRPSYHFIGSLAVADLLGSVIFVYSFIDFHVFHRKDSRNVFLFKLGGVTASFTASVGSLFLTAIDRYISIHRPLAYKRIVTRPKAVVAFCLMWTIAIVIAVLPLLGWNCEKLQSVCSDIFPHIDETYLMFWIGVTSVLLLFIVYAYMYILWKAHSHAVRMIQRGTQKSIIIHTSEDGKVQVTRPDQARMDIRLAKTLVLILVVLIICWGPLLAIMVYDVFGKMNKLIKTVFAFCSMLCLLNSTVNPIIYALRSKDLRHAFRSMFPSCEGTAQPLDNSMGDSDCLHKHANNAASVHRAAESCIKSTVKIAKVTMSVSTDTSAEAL

For `C[C@H](NC(=O)C(C)(C)Oc1ccc(C(F)(F)F)cn1)[C@@H](Cc1ccc(Cl)cc1)c1cccc(C#N)c1` [Taranabant, reference compound], the “β-arrestin-2 recruitment, normalized % response, MEAN” value [1] was 100%, the “β-arrestin-2 recruitment, lum values” [1] was 18372 lum and 18832 lum and 19264 lum and the “β-arrestin-2 recruitment, normalized % response, MEAN” value [2] was 103%. The “β-arrestin-2 recruitment, lum values” [2] was 18512 lum and 19404 lum and 19658 lum, the “β-arrestin-2 recruitment, normalized % response, MEAN” value [3] was 93% and the “β-arrestin-2 recruitment, lum values” [3] was 17743 lum and 17133 lum and 18279 lum. For the same compound, the “β-arrestin-2 recruitment, normalized % response, MEAN” value [4] was 82%, the “β-arrestin-2 recruitment, lum values” [4] was 14976 lum and 16754 lum and 16533 lum and the “β-arrestin-2 recruitment, normalized % response, MEAN” value [5] was 68%. The “β-arrestin-2 recruitment, lum values” [5] was 13162 lum and 13787 lum and 14480 lum, the “β-arrestin-2 recruitment, normalized % response, MEAN” value [6] was 29% and the “β-arrestin-2 recruitment, lum values” [6] was 7347 lum and 7603 lum and 8539 lum. For the same compound, the “β-arrestin-2 recruitment, normalized % response, MEAN” value [7] was 9%, the “β-arrestin-2 recruitment, lum values” [7] was 4145 lum and 4621 lum and 5550 lum and the “β-arrestin-2 recruitment, normalized % response, MEAN” value [8] was 10%. The “β-arrestin-2 recruitment, lum values” [8] was 4284 lum and 4671 lum and 5727 lum, the “β-arrestin-2 recruitment, normalized % response, MEAN” value [9] was 10% and the “β-arrestin-2 recruitment, lum values” [9] was 4501 lum and 4565 lum and 5759 lum. For the same compound, the “β-arrestin-2 recruitment, normalized % response, MEAN” value [10] was 11%, the “β-arrestin-2 recruitment, lum values” [10] was 4670 lum and 4722 lum and 5843 lum and the “β-arrestin-2 recruitment, normalized % response, MEAN” value [11] was 0%. For the same compound, the “β-arrestin-2 recruitment, lum values” [11] was 2971 lum and 2809 lum and 4191 lum and the “bias: difference in IC50, G protein ([35S]GTPγS) versus β-arrestin2” value was “no apparent bias”.
For `C/C(N)=N\C(=N/S(=O)(=O)c1ccc(C(F)(F)F)cc1)N1C[C@H](c2ccccc2)C(c2ccc(Cl)cc2)=N1` [MRI-1867], the “β-arrestin-2 recruitment, normalized % response, MEAN” value [1] was 100%, the “β-arrestin-2 recruitment, % basal response” value [12] was 422% and 598% and 458% and 350% and the “β-arrestin-2 recruitment, lum values” [12] was 15361 lum and 21612 lum and 16563 lum and 12404 lum. The “β-arrestin-2 recruitment, normalized % response, MEAN” value [2] was 101%, the “β-arrestin-2 recruitment, % basal response” value [13] was 416% and 542% and 524% and 349% and the “β-arrestin-2 recruitment, lum values” [13] was 15142 lum and 19591 lum and 18948 lum and 12375 lum. The “β-arrestin-2 recruitment, normalized % response, MEAN” value [3] was 105%, the “β-arrestin-2 recruitment, % basal response” value [14] was 408% and 586% and 562% and 342% and the “β-arrestin-2 recruitment, lum values” [14] was 14843 lum and 21209 lum and 20344 lum and 12137 lum. For the same compound, the “β-arrestin-2 recruitment, normalized % response, MEAN” value [4] was 110%, the “β-arrestin-2 recruitment, % basal response” value [15] was 444% and 560% and 594% and 359% and the “β-arrestin-2 recruitment, lum values” [15] was 16156 lum and 20271 lum and 21487 lum and 12718 lum. For the same compound, the “β-arrestin-2 recruitment, normalized % response, MEAN” value [5] was 102%, the “β-arrestin-2 recruitment, % basal response” value [16] was 412% and 538% and 543% and 345% and the “β-arrestin-2 recruitment, lum values” [16] was 15011 lum and 19443 lum and 19638 lum and 12234 lum. The “β-arrestin-2 recruitment, normalized % response, MEAN” value [6] was 71%, the “β-arrestin-2 recruitment, % basal response” value [17] was 355% and 425% and 371% and 250% and the “β-arrestin-2 recruitment, lum values” [17] was 12924 lum and 15375 lum and 13421 lum and 8857 lum. The “β-arrestin-2 recruitment, normalized % response, MEAN” value [7] was 24%, the “β-arrestin-2 recruitment, % basal response” value [18] was 162% and 213% and 215% and 121% and the “β-arrestin-2 recruitment, lum values” [18] was 5897 lum and 7687 lum and 7765 lum and 4277 lum. The “β-arrestin-2 recruitment, normalized % response, MEAN” value [8] was 10%, the “β-arrestin-2 recruitment, % basal response” value [19] was 113% and 143% and 144% and 91% and the “β-arrestin-2 recruitment, lum values” [19] was 4118 lum and 5161 lum and 5210 lum and 3224 lum. The “β-arrestin-2 recruitment, normalized % response, MEAN” value [9] was 4.5%, the “β-arrestin-2 recruitment, % basal response” value [20] was 94% and 126% and 124% and 74% and the “β-arrestin-2 recruitment, lum values” [20] was 3418 lum and 4556 lum and 4497 lum and 2623 lum. The “β-arrestin-2 recruitment, normalized % response, MEAN” value [10] was 3.5%, the “β-arrestin-2 recruitment, % basal response” value [21] was 79% and 121% and 133% and 72% and the “β-arrestin-2 recruitment, lum values” [21] was 2866 lum and 4366 lum and 4803 lum and 2549 lum. The “β-arrestin-2 recruitment, normalized % response, MEAN” value [11] was 0%, the “β-arrestin-2 recruitment, % basal response” value [22] was 98% and 84% and 76% and 78% and the “β-arrestin-2 recruitment, lum values” [22] was 3584 lum and 3036 lum and 2733 lum and 2778 lum. For the same compound, the IC50 (CP55,940 at ~EC80, read-out: IC50 ± S.E.M. β-arrestin2 recruitment) was 5.6 ± 0.7 nM and the “bias: difference in IC50, G protein ([35S]GTPγS) versus β-arrestin2” value was 5 fold.
